Data published in US9125805B2, “Stable formulations for parenteral injection of small molecule drugs” (Xeris Pharmaceuticals, Inc., priority 2012, dated 2015).
Values after ≈ are worked out from the molar mass of the structure shown. Like-named read-outs stand apart in the source and are kept apart here.

Columns and labels:
physchem = conditions: organic solvent or mixture, thermodynamic from solid

Molecule: O=C(O)c1cc(=O)c2c(OCC(O)COc3cccc4oc(C(=O)O)cc(=O)c34)cccc2o1 [Cromolyn sodium]
- solubility (physchem; Solubility (class)): 30 to 100 mg/mL

Molecule: CC(=O)Oc1ccccc1C(=O)O [Acetylsalicylic acid]
- solubility (physchem; Solubility (class)): 30 to 100 mg/mL (≈ 167 to 555 mM)

Molecule: OC(Cn1cncn1)(Cn1cncn1)c1ccc(F)cc1F [Fluconazole]
- Solubility (class) (solvent 70:30 (v/v) DMSO:NMP): Freely soluble
- Solubility (class) (solvent Benzyl Benzoate): Slightly soluble
- Solubility (class) (solvent DMSO): Freely soluble
- Solubility (class) (solvent NMP): Freely soluble
- Solubility (class) (solvent Triacetin): Slightly soluble
- solubility (physchem; Solubility (class), solvent PEG 300): 30 to 100 mg/mL (≈ 98 to 327 mM)
- solubility (physchem; Solubility, solvent 70:30 (v/v) DMSO:NMP): 850 mg/mL (≈ 2780 mM)
- solubility (physchem; Solubility, solvent Benzyl Benzoate): 5 mg/mL (≈ 16.3 mM)
- solubility (physchem; Solubility, solvent DMSO): 900 mg/mL (≈ 2940 mM)
- solubility (physchem; Solubility, solvent NMP): 800 mg/mL (≈ 2610 mM)
- solubility (physchem; Solubility, solvent PEG 300): 50 mg/mL (≈ 163 mM)
- solubility (physchem; Solubility, solvent Triacetin): 5 mg/mL (≈ 16.3 mM)

Molecule: CO[C@H]1/C=C/O[C@@]2(C)Oc3c(C)c(O)c4c(O)c(c(/C=N/N5CCN(C)CC5)c(O)c4c3C2=O)NC(=O)/C(C)=C\C=C\[C@H](C)[C@H](O)[C@@H](C)[C@@H](O)[C@@H](C)[C@H](OC(C)=O)[C@@H]1C [Rifampicin]
- solubility (physchem; Solubility (class)): 30 to 100 mg/mL (≈ 36.5 to 122 mM)

Molecule: NC[C@H]1O[C@H](O[C@H]2[C@H](O)[C@@H](O[C@H]3O[C@H](CO)[C@@H](O)[C@H](N)[C@H]3O)[C@H](N)C[C@@H]2N)[C@H](N)C[C@@H]1O [Tobramycin]
- solubility (physchem; Solubility): < 0.1 mg/mL

Molecule: Albuterol sulfate
- Solubility (class) (solvent 70:30 (v/v) DMSO:NMP): Slightly soluble
- solubility (solvent 70:30 (v/v) DMSO:NMP): 5 mg/mL
- Solubility (class) (solvent Benzyl Benzoate): Practically insoluble
- solubility (solvent Benzyl Benzoate): <0.1 mg/mL
- Solubility (class) (solvent DMSO): Slightly soluble
- solubility (solvent DMSO): 5 mg/mL
- Solubility (class) (solvent NMP): Practically insoluble
- solubility (solvent NMP): <0.1 mg/mL
- Solubility (class) (solvent PEG 300): Practically insoluble
- solubility (solvent PEG 300): <0.1 mg/mL
- Solubility (class) (solvent Triacetin): Practically insoluble
- solubility (solvent Triacetin): <0.1 mg/mL
